Measured values as given in US9701689B2, “Substituted pyridines and pyridazines as CCR10 receptor inhibitors” (KYOWA HAKKO KIRIN CO., LTD., priority 2012, dated 2017).

These compounds were tested against T1, human CCR10 (Homo sapiens, UniProt P46092) (assay: CCR10 antagonistic effect: calcium assay of human CCR10 (CTACK-induced increase of intracellular calcium in hCCR10G16 cells)). Settings: at a concentration of not more than 1000 nmol/L; human CCR10-expressing hCCR10G16 cells, 300 nmol/L CTACK added; read-out: inhibition of increase in the calcium ion concentration.
T1 construct: expressed in transfected cells; host or cells: KJMGER8 cells (Namalwa cell-derived line), beta-estradiol-induced; hCCR10G16 cells
T1 sequence (P46092 1-362): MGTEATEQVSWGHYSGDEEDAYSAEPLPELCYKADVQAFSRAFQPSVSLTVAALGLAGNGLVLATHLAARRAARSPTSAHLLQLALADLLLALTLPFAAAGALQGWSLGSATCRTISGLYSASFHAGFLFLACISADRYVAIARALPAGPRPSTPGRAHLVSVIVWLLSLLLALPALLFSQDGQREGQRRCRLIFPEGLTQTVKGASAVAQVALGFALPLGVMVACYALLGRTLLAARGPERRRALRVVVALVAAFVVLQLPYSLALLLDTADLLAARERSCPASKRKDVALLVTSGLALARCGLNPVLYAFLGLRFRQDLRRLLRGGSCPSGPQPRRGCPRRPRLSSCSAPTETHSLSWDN
Format: cell-based
Method in brief: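 Inhibition of CTACK-evoked calcium flux (max minus min Fluo-3 fluorescence over ~5 min, FDSS) was calculated against control in β-estradiol-induced human CCR10/Gα16 KJMGER8 cells, after 30 min compound preincubation at 37 °C; CTACK added from a 300 nmol/L solution.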

inhibition at up to 1 µM [%]	SMILES
≥ 50	N#Cc1cc(OC(F)(F)F)ccc1Nc1c(C(=O)N2CCC(c3ccc(F)cc3)CC2)cnc(S(N)(=O)=O)c1Cl [Compound 256, 3-chloro-4-[2-cyano-4-(trifluoromethoxy)phenylamino]-5-[4-(4-fluorophenyl)piperidine-1-carbonyl]pyridine-2-sulfonamide]
≥ 50	N#Cc1ccc(C(F)(F)F)cc1Nc1c(C(=O)N2CCC(c3ccc(F)cc3)CC2)cnc(S(N)(=O)=O)c1Cl [Compound 257, 3-chloro-4-[2-cyano-5-(trifluoromethyl)phenylamino]-5-[4-(4-fluorophenyl)piperidine-1-carbonyl]pyridine-2-sulfonamide]
≥ 50	Cc1c(S(=O)(=O)Nc2ccon2)ncc(C(=O)N2CCC(c3ccc(F)cc3)CC2)c1Nc1ccc(F)c(F)c1 [Compound 258, 4-(3,4-difluorophenylamino)-5-[4-(4-fluorophenyl)piperidine-1-carbonyl]-N-(isoxazol-3-yl)-3-methylpyridine-2-sulfonamide]
≥ 50	Cc1c(S(N)(=O)=O)ncc(C(=O)N2CCC3(CC2)COc2ccccc23)c1NCc1ccccc1 [Compound 261, 4-(benzylamino)-3-methyl-5-(2H-spiro[benzofuran-3,4′-piperidine]-1′-ylcarbonyl)pyridine-2-sulfonamide]
≥ 50	Cc1cccc(Nc2c(C(=O)N3CCC(c4ccc(F)cc4)CC3)cnc(S(=O)(=O)Nc3ccon3)c2C)c1F [Compound 264, 4-(2-fluoro-3-methylphenylamino)-5-[4-(4-fluorophenyl)piperidine-1-carbonyl]-N-(isoxazol-3-yl)-3-methylpyridine-2-sulfonamide]
≥ 50	Cc1c(S(=O)(=O)Nc2ccon2)ncc(C(=O)N2CCC(c3ccc(F)cc3)CC2)c1Nc1cccc(Cl)c1F [Compound 265, 4-(3-chloro-2-fluorophenylamino)-5-[4-(4-fluorophenyl)piperidine-1-carbonyl]-N-(isoxazol-3-yl)-3-methylpyridine-2-sulfonamide]
≥ 50	Cc1c(S(=O)(=O)Nc2ccon2)ncc(C(=O)N2CCC(c3ccc(F)cc3)CC2)c1Nc1cc(Cl)ccc1F [Compound 271, 4-(5-chloro-2-fluorophenylamino)-5-[4-(4-fluorophenyl)piperidine-1-carbonyl]-N-(isoxazol-3-yl)-3-methylpyridine-2-sulfonamide]

Further lines, the compound ahead of its results:

SMILES	inhibition at up to 1 µM [%]
Cc1c(S(=O)(=O)Nc2ccon2)ncc(C(=O)N2CCC(c3ccc(F)cc3)CC2)c1Nc1ccc(Br)cc1 [Compound 260, 4-(4-bromophenylamino)-5-[4-(4-fluorophenyl)piperidine-1-carbonyl]-N-(isoxazol-3-yl)-3-methylpyridine-2-sulfonamide]	≥ 50
COC1(c2ccc(F)cc2)CCN(C(=O)c2cnc(S(N)(=O)=O)c(C)c2NCc2ccccc2)CC1 [Compound 262, 4-(benzylamino)-5-[4-(4-fluorophenyl)-4-methoxypiperidine-1-carbonyl]-3-methylpyridine-2-sulfonamide]	≥ 50
Cc1ccc(Nc2c(C(=O)N3CCC(c4ccc(F)cc4)CC3)cnc(S(=O)(=O)Nc3ccon3)c2C)cc1C [Compound 263, 4-(3,4-dimethylphenylamino)-5-[4-(4-fluorophenyl)piperidine-1-carbonyl]-N-(isoxazol-3-yl)-3-methylpyridine-2-sulfonamide]	≥ 50
Cc1cc(NS(=O)(=O)c2ncc(C(=O)N3CCC(c4ccc(F)cc4)CC3)c(Nc3ccc(F)cc3C)c2C)sn1 [Compound 266, 4-(4-fluoro-2-methylphenylamino)-5-[4-(4-fluorophenyl)piperidine-1-carbonyl]-3-methyl-N-(3-methylisothiazol-5-yl)pyridine-2-sulfonamide]	≥ 50
Cc1cc(NS(=O)(=O)c2ncc(C(=O)N3CCC(c4ccc(F)cc4)CC3)c(Nc3cccc(F)c3)c2C)sn1 [Compound 267, 5-[4-(4-fluorophenyl)piperidine-1-carbonyl]-4-(3-fluorophenylamino)-3-methyl-N-(3-methylisothiazol-5-yl)pyridine-2-sulfonamide]	≥ 50
COc1ccc(F)c(Nc2c(C(=O)N3CCC(c4ccc(F)cc4)CC3)cnc(S(=O)(=O)Nc3ccon3)c2C)c1 [Compound 268, 4-(2-fluoro-5-methoxyphenylamino)-5-[4-(4-fluorophenyl)piperidine-1-carbonyl]-N-(isoxazol-3-yl)-3-methylpyridine-2-sulfonamide]	≥ 50
COc1cc(Nc2c(C(=O)N3CCC(c4ccc(F)cc4)CC3)cnc(S(=O)(=O)Nc3ccon3)c2C)ccc1F [Compound 269, 4-(4-fluoro-3-methoxyphenylamino)-5-[4-(4-fluorophenyl)piperidine-1-carbonyl]-N-(isoxazol-3-yl)-3-methylpyridine-2-sulfonamide]	≥ 50
Cc1c(S(=O)(=O)Nc2ccon2)ncc(C(=O)N2CCC(c3ccc(F)cc3)CC2)c1Nc1ccc(Cl)cc1F [Compound 270, 4-(4-chloro-2-fluorophenylamino)-5-[4-(4-fluorophenyl)piperidine-1-carbonyl]-N-(isoxazol-3-yl)-3-methylpyridine-2-sulfonamide]	≥ 50
Cc1c(S(=O)(=O)Nc2ccon2)ncc(C(=O)N2CCC(c3ccc(F)cc3)CC2)c1Nc1cccc(F)c1Cl [Compound 272, 4-(2-chloro-3-fluorophenylamino)-5-[4-(4-fluorophenyl)piperidine-1-carbonyl]-N-(isoxazol-3-yl)-3-methylpyridine-2-sulfonamide]	≥ 50
Cc1c(S(=O)(=O)Nc2ccon2)ncc(C(=O)N2CCC(c3ccc(F)cc3)CC2)c1Nc1ccc(F)cc1Cl [Compound 273, 4-(2-chloro-4-fluorophenylamino)-5-[4-(4-fluorophenyl)piperidine-1-carbonyl]-N-(isoxazol-3-yl)-3-methylpyridine-2-sulfonamide]	≥ 50
Cc1c(S(=O)(=O)Nc2ccon2)ncc(C(=O)N2CCC(c3ccc(F)cc3)CC2)c1Nc1cc(F)ccc1Cl [Compound 274, 4-(2-chloro-5-fluorophenylamino)-5-[4-(4-fluorophenyl)piperidine-1-carbonyl]-N-(isoxazol-3-yl)-3-methylpyridine-2-sulfonamide]	≥ 50
Cc1c(S(=O)(=O)Nc2ccon2)ncc(C(=O)N2CCC(c3ccc(F)cc3)CC2)c1Nc1cc(F)cc(F)c1F [Compound 275, 5-[4-(4-fluorophenyl)piperidine-1-carbonyl]-N-(isoxazol-3-yl)-3-methyl-4-(2,3,5-trifluorophenylamino)pyridine-2-sulfonamide]	≥ 50
Cc1cccc(Nc2c(C(=O)N3CCC(c4ccc(F)cc4)CC3)cnc(S(=O)(=O)Nc3cc(C)ns3)c2C)c1 [Compound 276, 5-[4-(4-fluorophenyl)piperidine-1-carbonyl]-3-methyl-N-(3-methylisothiazol-5-yl)-4-(m-tolylamino)pyridine-2-sulfonamide]	≥ 50
Cc1cc(NS(=O)(=O)c2ncc(C(=O)N3CCC(c4ccc(F)cc4)CC3)c(Nc3ccccc3)c2C)sn1 [Compound 277, 5-[4-(4-fluorophenyl)piperidine-1-carbonyl]-3-methyl-N-(3-methylisothiazol-5-yl)-4-(phenylamino)pyridine-2-sulfonamide]	≥ 50
